Experimental data as given in patent US20160022769A1, “COMPOSTIONS AND METHODS FOR TREATING RETINAL DISEASE” (RETINAL SOLUTIONS LLC, priority 2013, published 2016).

Experiments:
[1] = system: posterior capillary dropout in the retina; assay: oxygen-induced retinopathy (OIR) mouse model, fluorescein angiography of retinal capillary dropout; type: in vivo
From the text: FIG. 2 is a montage of fluorescein angiograms depicting a retinal phenotype as observed in an OIR mouse, which highlights large areas of posterior capillary dropout in the retina.
Capillary drop out is a very serious problem for many retinal vascular diseases. […] See Trese, M. T. et al., Retinal Physician, April 2011.

[2] = target: T1, Frizzled receptor subtype 4 (Fz4) (Homo sapiens, UniProt Q9ULV1); settings: literature (Xu 2004 and others); cited from earlier work
T1 sequence (Q9ULV1 37-537): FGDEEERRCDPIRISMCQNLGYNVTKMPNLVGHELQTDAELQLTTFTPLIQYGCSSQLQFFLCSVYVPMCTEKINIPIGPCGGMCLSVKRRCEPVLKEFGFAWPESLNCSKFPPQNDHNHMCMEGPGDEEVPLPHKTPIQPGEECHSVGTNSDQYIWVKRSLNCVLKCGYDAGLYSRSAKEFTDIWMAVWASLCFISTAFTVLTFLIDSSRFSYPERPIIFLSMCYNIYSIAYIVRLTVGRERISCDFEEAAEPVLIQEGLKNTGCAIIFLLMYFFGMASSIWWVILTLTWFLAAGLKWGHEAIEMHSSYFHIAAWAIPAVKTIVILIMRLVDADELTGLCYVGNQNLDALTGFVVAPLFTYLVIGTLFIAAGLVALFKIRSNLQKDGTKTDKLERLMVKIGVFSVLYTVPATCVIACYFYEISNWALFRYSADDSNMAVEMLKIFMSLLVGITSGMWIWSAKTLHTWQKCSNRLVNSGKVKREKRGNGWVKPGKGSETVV

Norrin: 131 amino acid secreted protein (NCBI NP_000257.1), ligand of Frizzled-4 that activates Wnt signaling
retinal phenotype on fluorescein angiogram ([1]; OIR mouse, intravitreal injection, FIG. 4): posterior capillary sparing
capillary dropout ([1]; murine capillary dropout model, norrin treatment (FIG. 4 vs FIGS. 1-3)): reduced or eliminated
affinity for Fz4 [2]: nanomolar affinity
